In patent US7880007B2, “Bicyclic substituted phenyl piperidine modulators of muscarinic receptors” (Vertex Pharmaceuticals Incorporated, priority 2004, dated 2011):

Tests used:
Assay type in all cases: cell-based
M3 muscarinic receptor = target: T1, M3 muscarinic receptor (Homo sapiens, UniProt P20309); test: Functional mobilization of intracellular calcium (FLIPR), M3-CHO cells; details: for Emax: 100% efficacy = maximum response obtained with the Carbachol control; for M3 Activity: M3-CHO cells, calcium mobilization (FLIPR)
T1 construct: expressed in transfected cells; host or cells: CHO (M3-CHO)
T1 sequence (P20309 whole entry): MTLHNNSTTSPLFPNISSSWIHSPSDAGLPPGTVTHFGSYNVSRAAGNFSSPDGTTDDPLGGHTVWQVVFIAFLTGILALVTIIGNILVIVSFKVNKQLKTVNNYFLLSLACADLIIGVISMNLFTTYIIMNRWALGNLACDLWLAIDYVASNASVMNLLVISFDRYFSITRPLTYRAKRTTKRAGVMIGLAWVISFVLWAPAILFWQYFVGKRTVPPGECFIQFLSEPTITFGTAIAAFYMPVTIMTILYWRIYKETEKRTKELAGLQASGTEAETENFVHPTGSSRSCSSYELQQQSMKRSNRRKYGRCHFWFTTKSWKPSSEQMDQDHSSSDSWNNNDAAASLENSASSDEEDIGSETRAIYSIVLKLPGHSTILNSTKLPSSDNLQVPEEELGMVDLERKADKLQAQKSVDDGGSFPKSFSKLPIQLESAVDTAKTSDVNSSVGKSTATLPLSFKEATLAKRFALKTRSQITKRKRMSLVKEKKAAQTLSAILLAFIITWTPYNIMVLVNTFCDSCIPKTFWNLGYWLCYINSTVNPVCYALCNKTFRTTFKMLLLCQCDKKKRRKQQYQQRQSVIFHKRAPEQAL
Method in brief: (§1)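 FLIPR fluorescence (ex 488, em 540 nm) recorded 60 sec after compound addition to dye-loaded CHO cells. Agonist mode: compound alone. Antagonist mode: 15 min compound pre-incubation, then carbachol at EC80, or co-application. Efficacy expressed as % of maximal carbachol response.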

M4 muscarinic receptor = target: T2, M4 muscarinic receptor (Homo sapiens, UniProt P08173); test: Functional mobilization of intracellular calcium (FLIPR), M4-CHO cells; details: for Emax: 100% efficacy = maximum response obtained with the Carbachol control; for M4 Activity: M4-CHO cells, calcium mobilization (FLIPR)
T2 construct: expressed in transfected cells; host or cells: CHO (M4-CHO)
T2 sequence (P08173 1-479): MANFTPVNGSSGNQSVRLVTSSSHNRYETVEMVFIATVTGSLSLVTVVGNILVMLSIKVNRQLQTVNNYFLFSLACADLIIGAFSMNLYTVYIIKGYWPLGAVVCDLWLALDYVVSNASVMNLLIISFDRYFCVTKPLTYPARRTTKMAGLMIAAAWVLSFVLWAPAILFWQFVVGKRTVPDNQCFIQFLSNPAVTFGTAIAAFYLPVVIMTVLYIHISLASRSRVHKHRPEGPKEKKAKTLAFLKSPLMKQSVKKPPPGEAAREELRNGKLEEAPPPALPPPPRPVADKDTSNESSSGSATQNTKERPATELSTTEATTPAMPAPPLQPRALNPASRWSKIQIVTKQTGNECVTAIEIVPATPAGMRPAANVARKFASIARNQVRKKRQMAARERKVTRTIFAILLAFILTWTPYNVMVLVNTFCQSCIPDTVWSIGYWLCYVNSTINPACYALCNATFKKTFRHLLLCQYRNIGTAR
Method in brief: as §1

M1 muscarinic receptor = target: T3, M1 muscarinic receptor (Homo sapiens, UniProt P11229); test: Functional mobilization of intracellular calcium (FLIPR), M1-CHO cells; details: for Emax: 100% efficacy = maximum response obtained with the Carbachol control; for M1 Activity: M1-CHO cells, calcium mobilization (FLIPR)
T3 construct: expressed in transfected cells; host or cells: CHO (M1-CHO)
T3 sequence (P11229 1-460): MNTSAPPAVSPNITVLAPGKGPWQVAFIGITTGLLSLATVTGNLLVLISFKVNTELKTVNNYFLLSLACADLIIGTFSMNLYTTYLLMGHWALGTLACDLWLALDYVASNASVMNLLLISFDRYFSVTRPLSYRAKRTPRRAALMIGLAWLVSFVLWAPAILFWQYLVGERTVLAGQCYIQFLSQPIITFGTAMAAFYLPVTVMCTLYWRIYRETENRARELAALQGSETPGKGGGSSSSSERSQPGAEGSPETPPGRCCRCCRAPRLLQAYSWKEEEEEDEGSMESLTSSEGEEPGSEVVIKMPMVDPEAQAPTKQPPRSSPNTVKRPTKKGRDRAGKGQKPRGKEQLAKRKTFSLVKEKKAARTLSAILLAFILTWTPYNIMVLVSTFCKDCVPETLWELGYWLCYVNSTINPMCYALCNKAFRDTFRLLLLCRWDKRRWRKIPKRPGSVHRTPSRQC
Method in brief: as §1

M2 muscarinic receptor = target: T4, M2 muscarinic receptor (Homo sapiens, UniProt P08172); test: Functional mobilization of intracellular calcium (FLIPR), M2-CHO cells; details: for Emax: 100% efficacy = maximum response obtained with the Carbachol control; for M2 Activity: M2-CHO cells, calcium mobilization (FLIPR)
T4 construct: expressed in transfected cells; host or cells: CHO (M2-CHO)
T4 sequence (P08172 1-466): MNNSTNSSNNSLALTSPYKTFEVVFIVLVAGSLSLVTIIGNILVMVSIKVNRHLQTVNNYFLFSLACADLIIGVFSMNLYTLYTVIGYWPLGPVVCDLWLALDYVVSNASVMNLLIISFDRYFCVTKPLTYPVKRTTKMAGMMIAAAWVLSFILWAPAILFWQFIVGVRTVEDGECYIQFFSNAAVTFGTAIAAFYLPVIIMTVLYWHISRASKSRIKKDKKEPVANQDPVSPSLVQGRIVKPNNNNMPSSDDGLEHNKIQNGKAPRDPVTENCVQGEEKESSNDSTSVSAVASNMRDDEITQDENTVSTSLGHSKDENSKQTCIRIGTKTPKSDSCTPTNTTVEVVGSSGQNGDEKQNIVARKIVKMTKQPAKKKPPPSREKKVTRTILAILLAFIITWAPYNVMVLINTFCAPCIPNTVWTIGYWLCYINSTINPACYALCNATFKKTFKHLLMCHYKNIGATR
Method in brief: as §1

| SMILES | Emax (M3 muscarinic receptor) | Emax (M4 muscarinic receptor) | Emax (M1 muscarinic receptor) | Emax (M2 muscarinic receptor) | M3 Activity (M3 muscarinic receptor) | M4 Activity (M4 muscarinic receptor) | M1 Activity (M1 muscarinic receptor) | M2 Activity (M2 muscarinic receptor) |
| --- | --- | --- | --- | --- | --- | --- | --- | --- |
| CCOC(=O)N1CCC(CN2CCC(c3ccccc3OC(F)(F)F)CC2)CC1 [Compound 271] | < 25% | 25 to 100% | 25 to 100% | 25 to 100% | + (activity was measured to be greater than 5.0 μM) | +++ (activity was measured to be less than 1.0 μM) | +++ (activity was measured to be less than 1.0 μM) | ++ (activity was measured to be from 1.0 μM to 5.0 μM) |
| CCOC(=O)N1CCC(CN2CCC(c3cc(-c4ccc(C(C)(C)C#N)cc4)ccc3OC)CC2)CC1 [Compound 272] | < 25% | 25 to 100% | 25 to 100% | < 25% | + (activity was measured to be greater than 5.0 μM) | +++ (activity was measured to be less than 1.0 μM) | +++ (activity was measured to be less than 1.0 μM) | + (activity was measured to be greater than 5.0 μM) |
| COc1ccc(Cl)cc1C1CCN(C2CCC(=O)CC2)CC1 [Compound 273, 4-(4-(5-chloro-2-methoxyphenyl)piperidin-1-yl)cyclohexanone] | < 25% | 25 to 100% | 25 to 100% | 25 to 100% | + (activity was measured to be greater than 5.0 μM) | +++ (activity was measured to be less than 1.0 μM) | + (activity was measured to be greater than 5.0 μM) | ++ (activity was measured to be from 1.0 μM to 5.0 μM) |
| Fc1cccc(-c2ccccc2C2CCN([C@H]3C[C@H]4CC[C@H]3C4)CC2)c1 [Compound 274] | < 25% | 25 to 100% | < 25% | < 25% | + (activity was measured to be greater than 5.0 μM) | ++ (activity was measured to be from 1.0 μM to 5.0 μM) | + (activity was measured to be greater than 5.0 μM) | + (activity was measured to be greater than 5.0 μM) |
| COc1ccc(-c2ccc(S(C)(=O)=O)cc2)cc1C1CCN(C2CCCC2)CC1 [Compound 275] | < 25% | 25 to 100% | 25 to 100% | 25 to 100% | + (activity was measured to be greater than 5.0 μM) | ++ (activity was measured to be from 1.0 μM to 5.0 μM) | + (activity was measured to be greater than 5.0 μM) | + (activity was measured to be greater than 5.0 μM) |
| Fc1cccc(C2CCN(C3C[C@H]4CC[C@H]3C4)CC2)c1F (stereo partly shown) [Compound 276] | < 25% | 25 to 100% | 25 to 100% | < 25% | + (activity was measured to be greater than 5.0 μM) | ++ (activity was measured to be from 1.0 μM to 5.0 μM) | + (activity was measured to be greater than 5.0 μM) | + (activity was measured to be greater than 5.0 μM) |
| COc1ccc(-c2cccc(C)c2)cc1C1CCN([C@H]2C[C@H]3CC[C@H]2C3)CC1 [Compound 277] | < 25% | < 25% | < 25% | < 25% | + (activity was measured to be greater than 5.0 μM) | + (activity was measured to be greater than 5.0 μM) | + (activity was measured to be greater than 5.0 μM) | + (activity was measured to be greater than 5.0 μM) |

Further lines, with some results ahead:

| Emax (M3 muscarinic receptor) | Emax (M4 muscarinic receptor) | Emax (M1 muscarinic receptor) | Emax (M2 muscarinic receptor) | SMILES | M3 Activity (M3 muscarinic receptor) | M4 Activity (M4 muscarinic receptor) | M1 Activity (M1 muscarinic receptor) | M2 Activity (M2 muscarinic receptor) |
| --- | --- | --- | --- | --- | --- | --- | --- | --- |
| < 25% | 25 to 100% | < 25% | < 25% | COc1ccc(Cl)cc1C1CCN(CC2CC3CCC2CC3)CC1 (stereo not shown) [Compound 280] | + (activity was measured to be greater than 5.0 μM) | ++ (activity was measured to be from 1.0 μM to 5.0 μM) | + (activity was measured to be greater than 5.0 μM) | + (activity was measured to be greater than 5.0 μM) |
| < 25% | 25 to 100% | 25 to 100% | < 25% | Cc1ccccc1C1CCN(C2CCOCC2)CC1 [Compound 281] | + (activity was measured to be greater than 5.0 μM) | +++ (activity was measured to be less than 1.0 μM) | + (activity was measured to be greater than 5.0 μM) | + (activity was measured to be greater than 5.0 μM) |
| < 25% | 25 to 100% | < 25% | < 25% | CCC(=O)c1ccc(OC)c(C2CCN([C@H]3C[C@H]4CC[C@H]3C4)CC2)c1 [Compound 282] | + (activity was measured to be greater than 5.0 μM) | ++ (activity was measured to be from 1.0 μM to 5.0 μM) | + (activity was measured to be greater than 5.0 μM) | + (activity was measured to be greater than 5.0 μM) |
| < 25% | 25 to 100% | < 25% | < 25% | Cc1cccc(-c2ccccc2C2CCN([C@H]3C[C@H]4CC[C@H]3C4)CC2)c1 [Compound 283] | + (activity was measured to be greater than 5.0 μM) | ++ (activity was measured to be from 1.0 μM to 5.0 μM) | + (activity was measured to be greater than 5.0 μM) | + (activity was measured to be greater than 5.0 μM) |
| 25 to 100% | 25 to 100% | 25 to 100% | < 25% | COc1ccc(-c2ccc3c(c2)OCO3)cc1C1CCN(C2C[C@@H]3CC[C@@H]2C3)CC1 (stereo partly shown) [Compound 284] | + (activity was measured to be greater than 5.0 μM) | + (activity was measured to be greater than 5.0 μM) | + (activity was measured to be greater than 5.0 μM) | + (activity was measured to be greater than 5.0 μM) |
| < 25% | < 25% | < 25% | < 25% | CNC(=O)c1ccc(-c2ccc(OC)c(C3CCN(C4CCOCC4)CC3)c2)cc1 [Compound 285] | + (activity was measured to be greater than 5.0 μM) | + (activity was measured to be greater than 5.0 μM) | + (activity was measured to be greater than 5.0 μM) | + (activity was measured to be greater than 5.0 μM) |
| < 25% | 25 to 100% | < 25% | < 25% | COc1ccc(C#CC2(O)CCCC2)cc1C1CCN([C@H]2C[C@H]3CC[C@H]2C3)CC1 [Compound 287] | + (activity was measured to be greater than 5.0 μM) | +++ (activity was measured to be less than 1.0 μM) | + (activity was measured to be greater than 5.0 μM) | + (activity was measured to be greater than 5.0 μM) |
